In publication PMC12040169 (PLOS Biology, 2025) one finds viability data, which are given here for 79 compounds.

This data set in a line: in vitro. To be noted: human, hela cells, % viability.

The term viability denotes a read-out of living cells in per cent, often relative to untreated cells.

Turning to `COc1ccc(-c2nnc(SCC(=O)c3ccccc3)o2)cc1` [CBK069390], the viability at 28.5 h, 10 µM stood at 100%.
On to `Cc1ccc(S(=O)(=O)Nc2nc(C)cs2)cc1` [CBK102326], for which the viability at 28.5 h, 10 µM was 100%.
As for `CC(NCC(=O)N1c2ccccc2NC(=O)CC1C)c1ccc(-c2ccccc2)cc1` (stereo not shown) [CBK295155], the figure is 84.2%; as for `CCCCCn1c(=O)c(C(=O)NCc2ccc(Cl)cc2)c(O)c2ccccc21` [CBK291131], 117%; as for `CN(C)CCCOc1ccc2c(c1)Sc1ccccc1CC2=O` [CBK058002], 95.4%.
As for `Cc1cc(Oc2ccc(Cl)cc2Cl)nc(OCC#N)n1` [CBK019232], the figure is 96.9%.
Take `O=C(Cc1cc(F)c(F)c(F)c1)Nc1ccc2[nH]ccc2c1` [CBK159684]: the viability at 28.5 h, 10 µM was determined as 91.7%.
Take `COc1ccc(OC)c(C2C(C(=O)c3ccc(C)cc3)=C(O)C(=O)N2Cc2cccnc2)c1` (stereo not shown) [CBK264492]: the viability at 28.5 h, 10 µM stood at 113%.
For `Cc1nccc(-c2cccc(NC3CCN(c4ccc5c(c4)OCCO5)CC3)c2)n1` [CBK286439], the viability at 28.5 h, 10 µM was determined as 97.1%.
As for `COC(=O)c1cc(C#N)c(=O)n(CC(O)COc2c(C)cccc2C)c1` (stereo not shown) [CBK305709], the figure is 97.2%; as for `ON=C1CCC(c2ccccc2)CC1` (stereo not shown) [CBK016102], 113%; as for `COc1ccc(Oc2ncnc3c2[nH]c2ccccc23)cc1` [CBK291254], 88.9%.
Take `O=C1CN(C(=O)Cn2c(-c3cccs3)cc3cccnc32)CCN1` [CBK282543]: the viability at 28.5 h, 10 µM was determined as 100%.
For `CC(Cn1cccn1)NC(=O)N1CCN(Cc2ccc(F)cc2)CC1` (stereo not shown) [CBK306948], the viability at 28.5 h, 10 µM worked out at 88.9%.
As for `Cc1nn(C)c(Cl)c1S(=O)(=O)Nc1cc(NC2CCNC2)c2occc2c1` (stereo not shown) [CBK067807C], the viability at 28.5 h, 10 µM was 99.3%.
Next, `CCc1nnc(NS(C)(=O)=O)s1` [CBK062197]: 93%.
With `Cc1cccc(C)c1NC(=O)CCC(=O)OCc1ccccc1` [CBK267158], the viability at 28.5 h, 10 µM is 102%.
As for `COc1nccnc1N1CCN(CC(=O)Nc2c(C)cccc2C)CC1` [CBK084220], the figure is 89.1%.
Next, `CCCc1nnc(C(=O)NC(=O)NCCCN(C)C)s1` [CBK018853]: 84.3%.
For the compound `Cc1nn(C)c(Cl)c1S(=O)(=O)Nc1ccnn1C` [CBK062072], the viability at 28.5 h, 10 µM was 85.6%.
Next, `O=C(NNc1nc(-c2ccccc2)cc(-c2ccccc2)n1)Nc1ccccc1` [CBK262223]: 91.3%; `CCn1cc(C(=O)N2C[C@H](C(=O)OC)[C@@H](c3ccccc3F)C2)cn1` [CBK283510]: 94.2%.
As for `CN(C(=O)c1cc(-c2cccs2)[nH]n1)c1ccccc1` [CBK288115], the figure is 86.1%.
Consider `CC(CNC(=O)COc1ccc2ccccc2c1Br)CN(C)C` (stereo not shown) [CBK267369], for which the viability at 28.5 h, 10 µM was 94.9%.
Next, `Cc1cccc(C)c1OCC(=O)Nc1cccc(Oc2ccc3c(c2)C(=O)N(c2ccccc2)C3=O)c1` [CBK265499]: 100%; `CC(C)(C)C(=O)CN1CCC2(CC1)OCCc1c2[nH]c2ccc(F)cc12` [CBK040237]: 95.8%.
Turning to `CCN1CCN(C(=O)CCn2c(C(F)F)cc3cccnc32)CC1` [CBK285026], the viability at 28.5 h, 10 µM amounted to 112%.
For the compound `COC(=O)c1csc2c1N[C@H](C1CC3C=CC1C3)[C@@H]1CCO[C@H]21` (stereo partly shown) [CBK303251], the viability at 28.5 h, 10 µM turned out to be 94.9%.
Next, `Cc1ccccc1C1(O)CCN(CC(O)c2ccccc2)CC1` (stereo not shown) [CBK282491]: 83.7%; `CN(C)CCNC(=O)c1cccc(-c2cc(N3CCCN(C)CC3)n3nccc3n2)c1` [CBK037143]: 86.2%; `Cc1cc(C)nc(Nc2cccc(C3CCCN3C(=O)CCOc3ccccc3C)n2)n1` (stereo not shown) [CBK286496]: 90.7%.
With `Cc1cc(CN(C)C(=O)c2cc3sccc3[nH]2)no1` [CBK304340], the viability at 28.5 h, 10 µM was determined as 82.7%.
For the compound `c1ccc2c(c1)CCCN2c1ncnc2n[nH]cc12` [CBK287886], the viability at 28.5 h, 10 µM is 69.3%.
As for `CCC(=O)NCCCn1c(-c2cccnc2C)cc2cccnc21` [CBK282646], the figure is 90.4%; as for `O=C(Nc1ccccc1)c1ccc(F)cc1-n1cnnn1` [CBK287903], 111%; as for `CN1C(=O)CC2(C1=O)C(=O)N(CCCOc1ccc(F)cc1)c1ccccc12` (stereo not shown) [CBK075513], 108%.
On to `COc1ccc(C2c3ccccc3C[N+]3(C)CCCN23)cc1` (stereo not shown) [CBK008769], for which the viability at 28.5 h, 10 µM was determined as 95.7%.
Regarding `O=C(O)c1ccc(CSc2nnc(-c3ccncc3)o2)cc1` [CBK266352], the viability at 28.5 h, 10 µM amounted to 98.5%.
Next, `NC(=O)c1ccccc1NC(=O)CN1CCN(Cc2cccc(F)c2)CC1` [CBK270292]: 85.9%; `CCCc1ccc(S(=O)(=O)n2ccn(-c3ccc4c(c3)OCO4)c2=O)cc1` [CBK106634]: 94.6%; `COc1ccccc1Oc1nnnn1-c1ccc(C(N)=O)cc1` [CBK267988]: 96%.
As for `O=C(O)c1cccc(NS(=O)(=O)c2ccc(CNC(=O)c3ccc(Cl)cc3)s2)c1` [CBK155085], the figure is 104%; as for `COc1cccc(S(=O)(=O)Nc2nn(Cc3ccc(C)cc3)c3ccccc23)c1` [CBK048043], 89.8%; as for `Cc1cccc(OCC(=O)Nc2ncccc2OCCCC#N)c1` [CBK305918], 90.5%.
Next, `NS(=O)(=O)c1cc(C(=O)OCC(=O)c2ccccc2)c(Cl)cc1Cl` [CBK264542]: 90.8%.
In the case of `CCC1(CC)OC(N[C@@H](C)c2ccc(Cl)cc2)=NC1=O` [CBK126666], the viability at 28.5 h, 10 µM came out at 93.2%.
Next, `CN(C)C(=O)Cn1c(=O)n(Cc2cccs2)c2ncccc21` [CBK283902]: 81.7%; `COC(=O)c1cc(O)ccc1N` [CBK002250]: 105%; `O=C(O)CSc1c(NC(=O)c2ccccc2)sc2c1CCCC2` [CBK261062]: 97.5%.
Next, `COc1cc(-c2cnc(N)c(N3CCC(C(=O)O)CC3)n2)cc(OC)c1OC` [CBK063365]: 98.9%; `O=C(CN1C(=O)CCC1=O)Nc1nc2ccccc2s1` [CBK287345]: 97.7%; `Cc1ccc(C(=O)NC(=O)CSc2nc(N)n[nH]2)cc1` [CBK267523]: 90.9%.
Next, `O=C(NCCN1CCC(O)(c2cccc(F)c2)CC1)C1CCCCC1` [CBK283281]: 96.2%.
With `Cc1ccc(Cc2cnc(NC(=O)c3ccoc3C)s2)cc1C` [CBK298277], the viability at 28.5 h, 10 µM turned out to be 80.1%.
As for `Cc1nn(C)c(N2CCNCC2)c1NC(=O)Cc1c[nH]c2ccccc12` [CBK050256T], the figure is 97.1%.
For the compound `O=C(Nc1scc(-c2ccc(-c3ccccc3)cc2)c1C(=O)O)c1ccco1` [CBK266156], the viability at 28.5 h, 10 µM was determined as 108%.
For `N#C/C(=C\Nc1ccc(S(N)(=O)=O)cc1)c1nc(-c2cccc([N+](=O)[O-])c2)cs1` [CBK262366], the viability at 28.5 h, 10 µM is 115%.
For the compound `COc1ccc(C(=O)O)cc1NC(=S)NC(=O)c1ccc(-c2cc(Cl)ccc2Cl)o1` [CBK265074], the viability at 28.5 h, 10 µM came to 104%.
In the case of `CCOC(=O)c1c(NS(=O)(=O)Cc2ccccc2[N+](=O)[O-])sc2c1CCCC2` [CBK004651], the viability at 28.5 h, 10 µM was 95.8%.
With `c1cc(CCNc2nccn3ccnc23)ccn1` [CBK037976], the viability at 28.5 h, 10 µM turned out to be 99.2%.
On to `Cc1c(C(=O)NCCCCn2ccnc2)[nH]c2ccccc12` [CBK283246], for which the viability at 28.5 h, 10 µM was 94.3%.
Next, `O=C(CC1Sc2ccccc2NC1=O)Nc1ccc([N+](=O)[O-])c(F)c1` (stereo not shown) [CBK264717]: 85.5%; `CCN(CC(=O)N1CCN(Cc2ccc3c(c2)OCO3)CC1)S(=O)(=O)c1ccccc1` [CBK269436]: 92.3%.
As for `O=C(Oc1ccc(N(C(=O)c2ccncc2)S(=O)(=O)c2cccc3cccnc23)cc1)c1ccncc1` [CBK267123], the figure is 89.5%; as for `COC(=O)/C=C/c1cn(C2CC(O)C(CO)O2)c(=O)[nH]c1=O` (stereo not shown) [CBK201244], 105%.
`COc1ccc(C(=O)N2CCC3(CCCN(C(=O)CN4C(=O)CSC4=O)C3)C2)cc1OC` (stereo not shown) [CBK137088]: the viability at 28.5 h, 10 µM worked out at 115%.
On to `COc1c(Br)cc(Br)cc1/C=C1/SC(=N)NC1=O` [CBK119298], for which the viability at 28.5 h, 10 µM amounted to 94.4%.
As for `CCCC/C=C/c1cnc(Nc2ccc(N3CCOCC3)cc2)c2nccn12` [CBK091239], the figure is 91.3%.
Consider `O=C(O)c1ccc(N2C(=O)C(O)=C(C(=O)c3ccccc3)C2c2cccc([N+](=O)[O-])c2)cc1` (stereo not shown) [CBK263760], for which the viability at 28.5 h, 10 µM was found to be 92.5%.
As for `O=C(Nc1ccccc1[N+](=O)[O-])c1cc(S(=O)(=O)NCc2ccco2)ccc1Cl` [CBK264557], the figure is 94.4%; as for `CC(C)COc1ccc(-c2nonc2NC(=O)c2ccccc2F)cc1` [CBK299831], 86%; as for `CC(=O)N(C)c1nc(-c2ccccc2C)ccc1C(=O)NC1CCCCC1` [CBK106333], 96.9%.
Next, `O=C(O)C1C2C=CC(C2)C1C(=O)NCc1ccco1` (stereo not shown) [CBK265453]: 92.7%; `Cc1ccc2[nH]c(Cc3ccc(NC(=O)c4cccc5c(=O)cc(C)[nH]c45)cc3)nc2c1` [CBK285814]: 99.5%; `Cc1ccc2nc(C)cc(C(=O)NNC(=O)Nc3ccc([N+](=O)[O-])cc3)c2c1` [CBK266890]: 98.8%.
Next, `O=C(Nc1ccc(C(=O)O)c(O)c1)c1ccc(Br)o1` [CBK270053]: 87%.
Turning to `CCOc1ccc(-c2cncc(Nc3cccc(C(F)(F)F)c3)n2)cc1` [CBK065798], the viability at 28.5 h, 10 µM amounted to 50%.
As for `CSc1ncc(Cl)c(C(=O)Nc2nc(-c3ccc(S(=O)(=O)N4CCCCCC4)cc3)cs2)n1` [CBK268785], the figure is 96.5%.
As for `CCN(Cc1ccncc1)C(=O)NCCOc1ccccc1` [CBK155148], the figure is 100%.
